{"source": "ChEMBL document CHEMBL5244205", "about": "“Discovery of tricyclic dipyrrolopyridine derivatives as novel JAK inhibitors” (Bioorg Med Chem, 2017)"}
{"biological_target": "T1, Tyrosine-protein kinase JAK3 (Homo sapiens, UniProt P52333)", "T1 sequence (P52333 whole entry)": "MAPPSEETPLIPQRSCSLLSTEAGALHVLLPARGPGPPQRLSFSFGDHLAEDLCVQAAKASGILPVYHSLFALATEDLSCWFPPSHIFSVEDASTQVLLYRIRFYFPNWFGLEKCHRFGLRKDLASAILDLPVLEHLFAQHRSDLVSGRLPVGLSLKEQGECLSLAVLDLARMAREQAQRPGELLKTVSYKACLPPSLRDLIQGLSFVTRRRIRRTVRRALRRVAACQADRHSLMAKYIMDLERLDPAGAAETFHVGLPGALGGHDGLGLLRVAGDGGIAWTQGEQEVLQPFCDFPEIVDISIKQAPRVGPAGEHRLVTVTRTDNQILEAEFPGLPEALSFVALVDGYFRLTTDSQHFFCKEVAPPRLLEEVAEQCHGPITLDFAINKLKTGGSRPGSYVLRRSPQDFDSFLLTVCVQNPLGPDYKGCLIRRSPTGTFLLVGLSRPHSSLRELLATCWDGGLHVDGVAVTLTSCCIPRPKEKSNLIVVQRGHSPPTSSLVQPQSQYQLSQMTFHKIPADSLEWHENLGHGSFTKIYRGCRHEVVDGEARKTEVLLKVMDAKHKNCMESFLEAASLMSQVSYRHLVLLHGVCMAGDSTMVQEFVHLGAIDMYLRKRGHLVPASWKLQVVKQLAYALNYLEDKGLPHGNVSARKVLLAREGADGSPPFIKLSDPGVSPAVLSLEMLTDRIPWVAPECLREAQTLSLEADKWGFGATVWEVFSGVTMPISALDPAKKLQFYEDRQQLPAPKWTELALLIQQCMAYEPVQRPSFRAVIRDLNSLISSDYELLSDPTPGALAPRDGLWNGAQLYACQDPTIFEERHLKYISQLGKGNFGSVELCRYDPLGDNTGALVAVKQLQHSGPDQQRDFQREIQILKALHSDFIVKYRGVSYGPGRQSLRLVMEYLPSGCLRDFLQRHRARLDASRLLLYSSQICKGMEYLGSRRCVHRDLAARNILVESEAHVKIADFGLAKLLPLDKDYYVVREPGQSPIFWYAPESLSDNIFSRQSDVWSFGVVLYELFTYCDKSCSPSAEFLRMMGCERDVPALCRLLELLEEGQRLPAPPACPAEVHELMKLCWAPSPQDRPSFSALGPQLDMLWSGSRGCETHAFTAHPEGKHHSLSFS", "assay": "not given", "settings": "not given", "units": {"IC50": "nM"}}
{"smiles": "C[C@@H]1CCN(C(=O)C(C)(C)C#N)C[C@@H]1n1c(=O)[nH]c2cnc3[nH]ccc3c21", "note": "(racemic)", "IC50": 7.1}
{"smiles": "Cc1cc2cnc3[nH]ccc3c2n1[C@H]1CN(C(=O)CC#N)CC[C@H]1C", "note": "(racemic)", "IC50": 0.17}
{"smiles": "C[C@@H]1CCN(C(=O)CC#N)C[C@@H]1n1ccc2cnc3[nH]ccc3c21", "note": "(racemic)", "IC50": 0.44}
{"smiles": "C[C@H]1CCN(C(=O)CC#N)C[C@H]1n1ccc2cnc3[nH]ccc3c21", "IC50": 200}
{"smiles": "C[C@@H]1CCN(C(=O)CC#N)C[C@@H]1n1ncc2cnc3[nH]ccc3c21", "note": "(racemic)", "IC50": 4.1}
{"smiles": "C[C@@H]1CCN(C(=O)N2CCOCC2)C[C@@H]1n1c(=O)[nH]c2cnc3[nH]ccc3c21", "note": "(racemic)", "IC50": 5.5}
{"smiles": "C[C@@H]1CCN(C(=O)Cn2cnnn2)C[C@@H]1n1c(=O)[nH]c2cnc3[nH]ccc3c21", "note": "(racemic)", "IC50": 1.4}
{"tested_on": "not listed separately", "assay": "in vitro", "settings": "PAMPA, pH 6.5, permeability", "units": {"Papp at 2 h": "×10⁻⁶ cm/s"}, "description": "Permeability of the compound in pH 6.5 incubated for 2 hrs by PAMPA based HPLC analysis"}
{"smiles": "C[C@@H]1CCN(C(=O)C(C)(C)C#N)C[C@@H]1n1c(=O)[nH]c2cnc3[nH]ccc3c21", "note": "(racemic)", "Papp at 2 h": 6.3}
{"smiles": "Cc1cc2cnc3[nH]ccc3c2n1[C@H]1CN(C(=O)CC#N)CC[C@H]1C", "note": "(racemic)", "Papp at 2 h": 26}
{"smiles": "C[C@@H]1CCN(C(=O)CC#N)C[C@@H]1n1c(=O)n(C)c2cnc3[nH]ccc3c21", "note": "(racemic)", "Papp at 2 h": 2.5}
{"smiles": "C[C@@H]1CCN(C(=O)CC#N)C[C@@H]1n1ccc2cnc3[nH]ccc3c21", "note": "(racemic)", "Papp at 2 h": 13}
{"smiles": "C[C@H]1CCN(C(=O)CC#N)C[C@H]1n1ccc2cnc3[nH]ccc3c21", "Papp at 2 h": 21}
{"smiles": "C[C@@H]1CCN(C(=O)CC#N)C[C@@H]1n1ncc2cnc3[nH]ccc3c21", "note": "(racemic)", "Papp at 2 h": 5.9}
{"smiles": "C[C@@H]1CCN(C(=O)N2CCOCC2)C[C@@H]1n1c(=O)[nH]c2cnc3[nH]ccc3c21", "note": "(racemic)", "Papp at 2 h": 1.3}
{"smiles": "C[C@@H]1CCN(C(=O)Cn2cnnn2)C[C@@H]1n1c(=O)[nH]c2cnc3[nH]ccc3c21", "note": "(racemic)", "Papp at 2 h": "< 0.8"}
{"biological_target": "Tyrosine-protein kinase JAK2 (Homo sapiens, UniProt O60674)", "sequence (O60674 whole entry)": "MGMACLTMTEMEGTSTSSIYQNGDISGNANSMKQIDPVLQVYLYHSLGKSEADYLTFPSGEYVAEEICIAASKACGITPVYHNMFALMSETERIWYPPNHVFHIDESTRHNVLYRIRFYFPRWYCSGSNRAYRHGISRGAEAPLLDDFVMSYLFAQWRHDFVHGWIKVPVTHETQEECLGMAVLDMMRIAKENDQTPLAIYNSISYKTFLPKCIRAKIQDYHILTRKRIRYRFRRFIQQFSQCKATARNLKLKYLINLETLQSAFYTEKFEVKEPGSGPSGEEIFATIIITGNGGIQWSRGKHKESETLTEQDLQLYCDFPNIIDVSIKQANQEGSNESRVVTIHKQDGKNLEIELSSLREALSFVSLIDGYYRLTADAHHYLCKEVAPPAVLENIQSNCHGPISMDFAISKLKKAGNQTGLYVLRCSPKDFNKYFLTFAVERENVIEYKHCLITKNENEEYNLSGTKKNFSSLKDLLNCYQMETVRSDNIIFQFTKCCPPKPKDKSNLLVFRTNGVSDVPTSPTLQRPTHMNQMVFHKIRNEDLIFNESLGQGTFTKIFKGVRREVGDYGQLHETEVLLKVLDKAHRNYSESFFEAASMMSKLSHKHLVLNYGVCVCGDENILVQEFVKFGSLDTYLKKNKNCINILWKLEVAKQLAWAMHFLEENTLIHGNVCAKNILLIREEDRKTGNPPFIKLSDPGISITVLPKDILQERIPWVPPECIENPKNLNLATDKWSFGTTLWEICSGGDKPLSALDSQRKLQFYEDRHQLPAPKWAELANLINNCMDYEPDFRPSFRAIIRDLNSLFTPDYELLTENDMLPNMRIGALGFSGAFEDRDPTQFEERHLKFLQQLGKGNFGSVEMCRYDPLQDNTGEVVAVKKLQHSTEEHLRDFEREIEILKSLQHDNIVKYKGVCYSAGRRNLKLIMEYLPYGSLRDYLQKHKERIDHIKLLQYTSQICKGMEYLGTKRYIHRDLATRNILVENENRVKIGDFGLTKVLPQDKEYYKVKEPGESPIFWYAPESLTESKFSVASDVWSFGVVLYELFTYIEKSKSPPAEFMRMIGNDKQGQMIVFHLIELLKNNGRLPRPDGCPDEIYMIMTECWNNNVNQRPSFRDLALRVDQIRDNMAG", "assay": "not given", "settings": "not given", "units": {"IC50": "nM"}}
{"smiles": "C[C@@H]1CCN(C(=O)C(C)(C)C#N)C[C@@H]1n1c(=O)[nH]c2cnc3[nH]ccc3c21", "note": "(racemic)", "IC50": 15}
{"smiles": "Cc1cc2cnc3[nH]ccc3c2n1[C@H]1CN(C(=O)CC#N)CC[C@H]1C", "note": "(racemic)", "IC50": 0.3}
{"smiles": "C[C@@H]1CCN(C(=O)CC#N)C[C@@H]1n1ccc2cnc3[nH]ccc3c21", "note": "(racemic)", "IC50": 1}
{"smiles": "C[C@H]1CCN(C(=O)CC#N)C[C@H]1n1ccc2cnc3[nH]ccc3c21", "IC50": 390}
{"smiles": "C[C@@H]1CCN(C(=O)CC#N)C[C@@H]1n1ncc2cnc3[nH]ccc3c21", "note": "(racemic)", "IC50": 11}
{"smiles": "C[C@@H]1CCN(C(=O)N2CCOCC2)C[C@@H]1n1c(=O)[nH]c2cnc3[nH]ccc3c21", "note": "(racemic)", "IC50": 12}
{"smiles": "C[C@@H]1CCN(C(=O)Cn2cnnn2)C[C@@H]1n1c(=O)[nH]c2cnc3[nH]ccc3c21", "note": "(racemic)", "IC50": 3.5}
{"tested_on": "not listed separately", "assay": "in vitro", "settings": "Sprague-Dawley, rat, liver microsomes, CLH", "units": {"CLint scaled at 0.75 h, 0.2 µM": "mL/min/kg"}}
{"smiles": "C[C@@H]1CCN(C(=O)C(C)(C)C#N)C[C@@H]1n1c(=O)[nH]c2cnc3[nH]ccc3c21", "note": "(racemic)", "CLint scaled at 0.75 h, 0.2 µM": 44}
{"smiles": "Cc1cc2cnc3[nH]ccc3c2n1[C@H]1CN(C(=O)CC#N)CC[C@H]1C", "note": "(racemic)", "CLint scaled at 0.75 h, 0.2 µM": 154}
{"smiles": "C[C@@H]1CCN(C(=O)CC#N)C[C@@H]1n1ccc2cnc3[nH]ccc3c21", "note": "(racemic)", "CLint scaled at 0.75 h, 0.2 µM": 110}
{"smiles": "C[C@H]1CCN(C(=O)CC#N)C[C@H]1n1ccc2cnc3[nH]ccc3c21", "CLint scaled at 0.75 h, 0.2 µM": 89}
{"biological_target": "Tyrosine-protein kinase JAK1 (Homo sapiens, UniProt P23458)", "sequence (P23458 whole entry)": "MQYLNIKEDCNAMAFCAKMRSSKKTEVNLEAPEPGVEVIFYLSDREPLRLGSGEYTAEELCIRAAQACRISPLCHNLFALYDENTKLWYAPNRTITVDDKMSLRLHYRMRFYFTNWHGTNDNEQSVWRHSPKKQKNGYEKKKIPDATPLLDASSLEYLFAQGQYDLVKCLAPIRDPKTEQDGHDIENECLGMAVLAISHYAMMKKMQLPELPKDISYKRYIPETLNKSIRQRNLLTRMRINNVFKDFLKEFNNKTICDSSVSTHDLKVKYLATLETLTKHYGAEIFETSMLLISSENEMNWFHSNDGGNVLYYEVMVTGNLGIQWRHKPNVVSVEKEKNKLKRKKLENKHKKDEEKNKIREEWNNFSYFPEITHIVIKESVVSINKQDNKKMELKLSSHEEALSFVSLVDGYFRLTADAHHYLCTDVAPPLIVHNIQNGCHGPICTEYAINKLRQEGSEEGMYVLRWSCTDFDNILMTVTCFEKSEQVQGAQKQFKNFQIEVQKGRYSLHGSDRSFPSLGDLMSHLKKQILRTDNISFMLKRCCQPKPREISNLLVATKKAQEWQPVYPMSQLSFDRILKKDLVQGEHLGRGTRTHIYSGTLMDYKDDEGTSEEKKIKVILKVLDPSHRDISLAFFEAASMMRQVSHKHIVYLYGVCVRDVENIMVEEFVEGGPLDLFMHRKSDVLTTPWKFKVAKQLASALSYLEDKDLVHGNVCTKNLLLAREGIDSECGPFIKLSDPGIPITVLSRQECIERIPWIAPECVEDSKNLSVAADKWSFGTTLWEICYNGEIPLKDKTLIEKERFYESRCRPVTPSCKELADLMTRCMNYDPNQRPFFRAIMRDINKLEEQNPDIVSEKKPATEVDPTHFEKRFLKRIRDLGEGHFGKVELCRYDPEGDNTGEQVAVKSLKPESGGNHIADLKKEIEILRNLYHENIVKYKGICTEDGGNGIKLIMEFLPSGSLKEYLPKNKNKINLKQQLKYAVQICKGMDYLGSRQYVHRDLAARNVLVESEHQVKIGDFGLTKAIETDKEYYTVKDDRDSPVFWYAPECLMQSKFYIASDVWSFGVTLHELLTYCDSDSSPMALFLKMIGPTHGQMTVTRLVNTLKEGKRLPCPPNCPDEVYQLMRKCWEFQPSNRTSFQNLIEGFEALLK", "assay": "not given", "settings": "not given", "units": {"IC50": "nM"}}
{"smiles": "C[C@@H]1CCN(C(=O)C(C)(C)C#N)C[C@@H]1n1c(=O)[nH]c2cnc3[nH]ccc3c21", "note": "(racemic)", "IC50": 58}
{"smiles": "Cc1cc2cnc3[nH]ccc3c2n1[C@H]1CN(C(=O)CC#N)CC[C@H]1C", "note": "(racemic)", "IC50": 0.43}
{"smiles": "C[C@@H]1CCN(C(=O)CC#N)C[C@@H]1n1ccc2cnc3[nH]ccc3c21", "note": "(racemic)", "IC50": 1.1}
{"smiles": "C[C@@H]1CCN(C(=O)CC#N)C[C@@H]1n1ncc2cnc3[nH]ccc3c21", "note": "(racemic)", "IC50": 7.5}
{"smiles": "C[C@@H]1CCN(C(=O)N2CCOCC2)C[C@@H]1n1c(=O)[nH]c2cnc3[nH]ccc3c21", "note": "(racemic)", "IC50": 19}
{"smiles": "C[C@@H]1CCN(C(=O)Cn2cnnn2)C[C@@H]1n1c(=O)[nH]c2cnc3[nH]ccc3c21", "note": "(racemic)", "IC50": 3.2}
{"biological_target": "CYP3A4 (Homo sapiens, UniProt P08684)", "sequence (P08684 whole entry)": "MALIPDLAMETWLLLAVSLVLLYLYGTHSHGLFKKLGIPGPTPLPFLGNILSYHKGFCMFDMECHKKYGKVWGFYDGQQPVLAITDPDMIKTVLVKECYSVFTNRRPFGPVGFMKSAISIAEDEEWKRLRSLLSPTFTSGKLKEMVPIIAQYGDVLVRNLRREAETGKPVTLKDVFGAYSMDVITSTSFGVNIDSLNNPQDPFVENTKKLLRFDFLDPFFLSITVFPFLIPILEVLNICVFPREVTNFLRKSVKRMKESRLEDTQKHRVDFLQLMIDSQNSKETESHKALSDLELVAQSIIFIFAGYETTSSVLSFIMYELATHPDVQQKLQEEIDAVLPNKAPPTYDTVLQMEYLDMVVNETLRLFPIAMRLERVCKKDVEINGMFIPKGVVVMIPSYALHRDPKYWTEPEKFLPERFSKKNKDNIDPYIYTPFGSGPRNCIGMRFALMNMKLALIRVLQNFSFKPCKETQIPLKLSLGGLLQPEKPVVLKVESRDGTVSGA", "assay": "in vitro", "settings": "liver microsomes, probe midazolam, TDI", "units": {"inhibition at 20 min, 5 µM": "%"}}
{"smiles": "C[C@@H]1CCN(C(=O)C(C)(C)C#N)C[C@@H]1n1c(=O)[nH]c2cnc3[nH]ccc3c21", "note": "(racemic)", "inhibition at 20 min, 5 µM": 18}
{"smiles": "Cc1cc2cnc3[nH]ccc3c2n1[C@H]1CN(C(=O)CC#N)CC[C@H]1C", "note": "(racemic)", "inhibition at 20 min, 5 µM": 44}
{"smiles": "C[C@@H]1CCN(C(=O)CC#N)C[C@@H]1n1ccc2cnc3[nH]ccc3c21", "note": "(racemic)", "inhibition at 20 min, 5 µM": 90}
{"smiles": "C[C@H]1CCN(C(=O)CC#N)C[C@H]1n1ccc2cnc3[nH]ccc3c21", "inhibition at 20 min, 5 µM": 88}
{"smiles": "C[C@@H]1CCN(C(=O)N2CCOCC2)C[C@@H]1n1c(=O)[nH]c2cnc3[nH]ccc3c21", "note": "(racemic)", "inhibition at 20 min, 5 µM": 61}
{"smiles": "C[C@@H]1CCN(C(=O)Cn2cnnn2)C[C@@H]1n1c(=O)[nH]c2cnc3[nH]ccc3c21", "note": "(racemic)", "inhibition at 20 min, 5 µM": 88}
